Biological target: PIK3CA (human) (UniProt P42336)
Experiment: Assessment of PIK3CA Kinase Activity

PIK3CA (human), sequence (P42336 whole entry, looked up): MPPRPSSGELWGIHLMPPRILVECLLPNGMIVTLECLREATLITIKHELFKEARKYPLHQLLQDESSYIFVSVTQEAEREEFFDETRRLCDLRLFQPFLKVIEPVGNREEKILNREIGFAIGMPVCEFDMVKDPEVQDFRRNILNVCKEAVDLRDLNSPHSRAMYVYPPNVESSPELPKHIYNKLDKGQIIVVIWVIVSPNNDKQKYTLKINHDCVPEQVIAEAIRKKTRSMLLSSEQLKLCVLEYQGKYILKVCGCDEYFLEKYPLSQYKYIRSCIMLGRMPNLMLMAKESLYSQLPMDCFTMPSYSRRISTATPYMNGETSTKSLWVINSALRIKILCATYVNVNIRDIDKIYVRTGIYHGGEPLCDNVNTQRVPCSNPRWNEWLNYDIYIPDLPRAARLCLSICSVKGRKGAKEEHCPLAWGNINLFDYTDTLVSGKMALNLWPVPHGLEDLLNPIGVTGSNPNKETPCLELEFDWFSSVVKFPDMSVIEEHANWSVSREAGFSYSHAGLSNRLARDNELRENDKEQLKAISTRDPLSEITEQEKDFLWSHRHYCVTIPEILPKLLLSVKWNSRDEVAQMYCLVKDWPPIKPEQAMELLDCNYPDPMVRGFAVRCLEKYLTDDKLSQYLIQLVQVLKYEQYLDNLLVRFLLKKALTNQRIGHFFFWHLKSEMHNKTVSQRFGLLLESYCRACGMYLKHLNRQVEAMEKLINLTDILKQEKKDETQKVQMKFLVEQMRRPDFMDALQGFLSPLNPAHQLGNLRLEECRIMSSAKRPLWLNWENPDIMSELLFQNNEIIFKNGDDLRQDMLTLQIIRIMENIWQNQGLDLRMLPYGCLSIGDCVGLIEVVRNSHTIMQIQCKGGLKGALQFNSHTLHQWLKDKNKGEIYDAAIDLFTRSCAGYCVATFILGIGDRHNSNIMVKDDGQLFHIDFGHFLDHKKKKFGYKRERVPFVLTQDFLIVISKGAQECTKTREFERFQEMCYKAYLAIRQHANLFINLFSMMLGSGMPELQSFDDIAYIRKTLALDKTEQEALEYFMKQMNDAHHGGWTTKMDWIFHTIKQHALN

| Compound | IC50 |
| --- | --- |
| CNC(=O)Cn1ccnc1-c1cn2c(n1)-c1ccc(-c3cnn(CC(C)(C)O)c3)cc1OCC2 | < 1 µM |
| CC(Cc1ccc2c(c1)OCCn1cc(-c3ncnn3C(C)C)nc1-2)C(N)=O (stereo not drawn) | < 1 µM |
| Cc1nc(-c2cn3c(n2)-c2ccc(CNCC(C)(C)O)cc2OCC3)n(-c2ccc(F)cc2F)n1 | < 1 µM |
| CC(C)n1ncnc1-c1cn2c(n1)-c1ccc(N3CCC[C@H]3C(N)=O)cc1OCC2 | < 1 µM |
| FC(F)(F)Cn1ncnc1-c1cc2n(n1)-c1cc(CNc3cnccn3)ccc1OCC2 | < 1 µM |
| CC(C)(CO)NC(=O)c1ccc2c(c1)-c1nc(-c3ncnn3CC(F)(F)F)cn1CCO2 | < 1 µM |
| Cc1nc(-c2ccc3c(c2)OCCn2cc(-c4ncnn4C(C)C)nc2-3)cn1CC(C)(C)O | < 1 µM |
| CC(C)n1nc(N)nc1-c1cn2c(n1)-c1ccccc1OCC2 | < 1 µM |
| CC(C)C(Oc1cc2c(cn1)-c1nc(-c3ncnn3C(C)C)cn1CCO2)C(N)=O (stereo not drawn) | < 1 µM |
| COCc1nc(-c2cn3c(n2)-c2ccc(C)cc2OCC3)n(C(C)C)n1 | < 1 µM |
| Cc1nc(-c2ccc3c(c2)OCCn2cc(-c4ncnn4C(C)C)nc2-3)cn1C | < 1 µM |
| Cc1nc(-c2ccc3c(c2)OCCn2cc(-c4ncnn4C(C)C)nc2-3)cn1CCO | < 1 µM |
| CC(C)n1ncnc1-c1cn2c(n1)-c1ccc(COC(N)=O)cc1OCC2 | < 1 µM |
| CC(C)n1ncnc1-c1cn2c(n1)-c1ccc(N[C@@H](C)C(N)=O)cc1OCC2 | < 1 µM |
| CC(C)n1nc(CO)nc1-c1cn2c(n1)-c1ccc(-c3cnn(CC(C)(C)O)c3)cc1OCC2 | < 1 µM |
| CNC(=O)c1ccc2c(c1)OCCn1cc(-c3ncnn3-c3ccc(F)cc3F)nc1-2 | < 1 µM |
| Cc1nc(-c2cn3c(n2)-c2ccccc2OCC3)n(C(C)C)n1 | < 1 µM |
| CC(C)n1nc(N)nc1-c1cn2c(n1)-c1ccc(-c3cn(CCO)cn3)cc1OCC2 | < 1 µM |
| O=C(c1ccc2c(c1)-c1nc(-c3ncnn3CC(F)(F)F)cn1CCO2)N1CCC(O)CC1 | < 1 µM |

| Compound | IC50 |
| --- | --- |
| Cc1nc(-c2cn3c(n2)-c2cnc(N4C[C@H](O)C[C@H]4C(N)=O)cc2OCC3)n(C(C)C)n1 | < 1 µM |
| CC(C)n1ncnc1-c1cn2c(n1)-c1ccc(N3CCN(CC(=O)N(C)C)CC3)nc1OCC2 | < 1 µM |
| CC(C)n1ncnc1-c1cc2n(n1)-c1cc(C(=O)Nc3cnn(CCO)c3)ccc1OCC2 | < 1 µM |
| CC(C)n1ncnc1-c1cn2c(n1)-c1ccc(-c3cnn(C(C)(C)C(=O)O)c3)cc1OCC2 | < 1 µM |
| OCCN1CC(c2ccc3c(c2)OCCc2cn(-c4ncnn4-c4ccc(F)cc4F)nc2-3)C1 | < 1 µM |
| CC(C)(CO)NC(=O)c1ccc2c(c1)OCCn1cc(-c3ncnn3-c3ccccc3Cl)nc1-2 | < 1 µM |
| CC(C)n1nc(CO)nc1-c1cn2c(n1)-c1cnc(N3CC(F)(F)C3)cc1OCC2 | < 1 µM |
| COC(=O)c1ccc2c(c1)OCCn1cc(-c3ncnn3CC(F)(F)F)nc1-2 | < 1 µM |
| Cc1nc(-c2cn3c(n2)-c2cnc(N4CCCC4Cc4ccccc4C)cc2OCC3)n(CC(F)(F)F)n1 (stereo not drawn) | < 1 µM |
| CS(=O)(=O)CCNC(=O)c1ccc2c(c1)-c1nc(-c3ncnn3CC(F)(F)F)cn1CCO2 | < 1 µM |
| CC(C)n1nc(N)nc1-c1cn2c(n1)-c1cc(-c3ccc(Cl)cc3)ccc1OCC2 | < 1 µM |
| CC(C)n1nc(N)nc1-c1cn2c(n1)-c1ccc(C3CC3)cc1OCC2 | < 1 µM |
| CC(C)n1ncnc1-c1cn2c(n1)-c1ccc(N3CC(F)(F)C[C@H]3C(N)=O)cc1OCC2 | < 1 µM |
| Cc1nc(-c2cn3c(n2)-c2ccc(C4COC4)cc2OCC3)n(C(C)C)n1 | < 1 µM |
| Cc1nc(-c2cn3c(n2)-c2ccc(CN)cc2OCC3)n(-c2ccc(F)cc2F)n1 | < 1 µM |
| Cc1nc(-c2cn3c(n2)-c2ccc(-c4cnn(CCO)c4)cc2OCC3)n(C(C)C)n1 | < 1 µM |
| CC(C)n1ncnc1-c1cn2c(n1)-c1cnc(N(C)CC(N)=O)cc1OCC2 | < 1 µM |
| NC(=O)[C@@H]1CCCN1c1ccc2c(c1)OCCn1cc(-c3ncnn3CC(F)(F)F)nc1-2 | < 1 µM |
| CC(C)n1nc(N)nc1-c1cn2c(n1)-c1cc(-c3ccccc3)ccc1OCC2 | < 1 µM |

From the Kinase Knowledgebase extract (Sharma et al. 2016)
